Common to all, as to format: in vivo, Sprague Dawley rats
Assay [1] concerns intracellular Ang II (iAng II) in cardiac myocytes. Put plainly: Measurement of iAng II in cardiac myocytes isolated from STZ-diabetic rat hearts (competitive ELISA). The following applies: for iAng II levels in cardiac myocytes: STZ-diabetic rats treated daily for 7 days (insulin 2-5 U BID SC; candesartan 1 mg/kg IP; aliskiren 30 mg/kg oral; benazepril 10 mg/kg oral), mean±SE, diabetic untreated 0.59±0.01, control 0.06±0.01; for iAng II synthesis, blocked or not (result in words): diabetic rats, summary statement. As to the method:
(§1) Diabetes is induced by a single injection of streptozotocin (STZ, 65 mg/kg body weight, IP) dissolved in 0.1 M sodium citrate buffered saline (pH 4.5), in adult male Sprague Dawley rats (250-300 g). Control animals receive buffered saline alone. Diabetes is confirmed by sustained blood glucose levels >15 mmol/L, as determined 48 h after STZ injection and on alternate days thereafter. […] After 7 days, animals are weighed and anesthetized using ketamine/xylazine (50/5 mg/kg). Hearts are isolated and weighed before perfusion, the latter using the Langendorff methodology.
Hearts are isolated and perfused with Krebs-Henseleit bicarbonate buffer, followed by digestion with collagenase II (0.1% w/v). Myocytes are separated from non-myocytes by differential centrifugation at 25×g. […] The pellet containing myocytes is processed for Ang II extraction, as described by Singh et al in Am J Physiol Heart Circ Physiol 293:H939-H948, 2007. Cells were lysed in ice-cold 1 M acetic acid, containing a protease inhibitor cocktail (Sigma), by sonication (2 pulses of 5 sec each). The lysate is sedimented at 20,000×g for 10 min and the supernatant is dried in a vacufuge, followed by reconstitution in 1% acetic acid. The samples are applied to a conditioned DSC-18 column (Supelco), washed, and eluted with methanol. The eluted samples are dried and reconstituted in PBS for ELISA. For isolation of Ang II from plasma, an equal volume of 2% acetic acid is added to plasma, followed by filtration through Amicon Ultra-15 filters. The filtrate is applied to DSC-18 columns and Ang II is eluted, as described for the cell lysates. […] Ang II is measured by quantitative, competitive ELISA, using a specific anti-Ang II antibody (Peninsula Labs), as previously described in Am J Physiol Heart Circ Physiol 293:H939-H948, 2007. ELISA is performed on protein-A and anti-Ang II antibody-coated 96-well dishes. Competitive binding of synthetic biotinylated Ang II, in the presence of the extracted peptide, is detected with streptavidin-horseradish peroxidase conjugate. A standard curve, generated from binding of a constant amount of biotinylated Ang II with increasing concentrations of non-biotinylated synthetic Ang II, is used to calculate the concentration of the peptide in the sample. The concentration of Ang II in the cell lysates is expressed as fmoles per milligram of heart wt and in plasma as fmoles per milligram of plasma proteins.
Ang II levels in cardiac myocytes, which are isolated after perfusion of the hearts and enzymatic dispersion, correspond to Ang II present intracellularly. To determine the source of iAng II, i.e., intracellular synthesis or AT1-mediated internalization, one group of diabetic animals is treated with the AT1 antagonist candesartan to prevent receptor-mediated uptake.
A general note: In an ELISA, binding on a coated surface is turned into a signal by an enzyme label.

For a further assay, the system named is cardiac myocytes. As to the kind of experiment: Cardiac myocyte apoptosis in heart sections (TUNEL assay and cleaved caspase-3 staining). The following applies: STZ-diabetic rats; for Caspase-3 staining, Mean / TUNEL assay, Mean: 7 days of treatment, heart sections; for Caspase-3 staining, Mean: control 7, diabetic no treatment 28; for TUNEL assay, Mean: control 8.5, diabetic no treatment 33.

The subject of assay [2] is Superoxide production in the hearts. Put plainly: Reactive oxygen species detection in the heart by dihydroethidium (DHE) staining. The note with it: STZ-diabetic rats; for DHE fluorescence, Mean: 7 days of treatment, frozen heart sections, 10 μM DHE, control 17.65, diabetic no treatment 68.6; for superoxide production / oxidative stress (result in words): DHE staining of heart sections.

Assay [3] has as its system Cardiac interstitial fibrosis. Put plainly: Cardiac interstitial fibrosis by Masson's trichrome staining, graded on a scale of 0-4. The note with it: for degree of fibrosis (average grade): STZ-diabetic rats after one week of diabetes, scale 0-4, diabetic untreated grade 1.5, control grade 0; for diabetes-induced cardiac fibrosis (result in words): diabetic rats, summary statement. As to the method:
as §1
Cardiac interstitial fibrosis is determined by Masson's trichrome staining on 5 μm paraffin-embedded sections. The extent and degree of fibrosis is graded on a scale of 0-4. Grade 0 signifies no apparent collagen fiber proliferation except for small islets of fibrous tissue around the capillaries, as well as an intercellular single layer of collagenous tissue, as in normal myocardium. Focal and minimal fibrosis is graded as 1, mild patchy fibrosis as grade 2, moderate diffuse fibrosis as grade 3 and the most prominent fibrosis, covering major area of the specimen, is classified as 4. A minimum of three sections per heart, with five fields per section, and three animals per experimental group, are analyzed and results presented as an average grade.
After one week of diabetes, the overall staining for fibrosis is enhanced in hearts from diabetic rats (grade 1.5), compared to control animals (grade 0). […] Candesartan and benazepril reduces the degree of fibrosis (grade 0.43 and 0.88, respectively), whereas aliskiren has a more pronounced reduction of fibrosis (grade 0.25) in diabetic rat hearts.

`COCCCOc1cc(C[C@@H](C[C@H](N)[C@@H](O)C[C@H](C(=O)NCC(C)(C)C(N)=O)C(C)C)C(C)C)ccc1OC` [aliskiren, 2(S),4(S),5(S),7(S)—N-(3-amino-2,2-dimethyl-3-oxopropyl)-2,7-di(1-methylethyl)-4-hydroxy-5-amino-8-[4-methoxy-3-(3-methoxy-propoxy)phenyl]-octanamide]: in assay [1], the “iAng II levels in cardiac myocytes” value is on record as 0.12±0.02 fmole/mg heart wt and the “iAng II synthesis, blocked or not (result in words)” value is “blocked”. Further, in the assay with cardiac myocytes, the “Caspase-3 staining, Mean” value was found to be 18 positive cells/mm^2 and the “TUNEL assay, Mean” value is recorded as 21.3 positive cells/mm^2. Further, in assay [2], the “DHE fluorescence, Mean” value is reported as 22.7 Arbitrary units and the “superoxide production / oxidative stress (result in words)” value (from here on “superoxide production / oxidative stress”) was “blocks it completely”. Also, in assay [3], the “degree of fibrosis (average grade)” value was determined as 0.25 grade and the “diabetes-induced cardiac fibrosis (result in words)” value is “complete inhibition”.
As for `CCOC(=O)[C@H](CCc1ccccc1)N[C@H]1CCc2ccccc2N(CC(=O)O)C1=O` [benazepril], in assay [1], the “iAng II levels in cardiac myocytes” value is reported as 0.55±0.02 fmole/mg heart wt and the “iAng II synthesis, blocked or not (result in words)” value is “not”. In addition, in the assay with cardiac myocytes, the “Caspase-3 staining, Mean” value came out at 21 positive cells/mm^2 and the “TUNEL assay, Mean” value was found to be 27 positive cells/mm^2. Also, in assay [2], the “DHE fluorescence, Mean” value worked out at 51.4 Arbitrary units and the “superoxide production / oxidative stress” value is given as “reduces oxidative stress”. In assay [3], the “degree of fibrosis (average grade)” value is 0.88 grade and the “diabetes-induced cardiac fibrosis (result in words)” value was “partially inhibited”.
Regarding `CCOc1nc2cccc(C(=O)O)c2n1Cc1ccc(-c2ccccc2-c2nnn[nH]2)cc1` [candesartan], the “iAng II levels in cardiac myocytes” value in assay [1] was 0.43±0.05 fmole/mg heart wt. Besides, in the assay on cardiac myocytes, the “Caspase-3 staining, Mean” value is recorded as 18.5 positive cells/mm^2 and the “TUNEL assay, Mean” value was found to be 24 positive cells/mm^2. Moreover, the “DHE fluorescence, Mean” value in assay [2] came out at 37.7 Arbitrary units. In addition, in assay [3], the “degree of fibrosis (average grade)” value is on record as 0.43 grade.
Turning to “insulin: type 1 diabetes therapeutic agent, used to normalize blood glucose in STZ-treated rats”, in the assay with cardiac myocytes, the “Caspase-3 staining, Mean” value turned out to be 14 positive cells/mm^2 and the “TUNEL assay, Mean” value stood at 20 positive cells/mm^2. The “number of apoptotic cells (result in words)” value in the assay on cardiac myocytes (by both TUNEL assay and caspase-3 staining) was “reduces the number of apoptotic cells, but does not prevent apoptosis completely”. Moreover, in assay [2], the “DHE fluorescence, Mean” value is given as 26.7 Arbitrary units and the “superoxide production / oxidative stress” value was “prevented”. In assay [3], the “degree of fibrosis (average grade)” value came out at 0.04 grade.

The values above are taken from patent US20100093603A1, “USE OF ORGANIC COMPOUNDS” (priority 2008, published 2010).
